Literature values, collected in US20070298098A1, “Controlled Release Compositions Comprising Levetiracetam” (ELAN PHARMA INTERNATIONAL LIMITED, priority 2005, published 2007).
“Also recorded” adds a separate entry of the source.

plasma half-life (across studies): 6 to 8 h | linearity of pharmacokinetics (dose range of 500-5000 mg): linear | dependence of metabolism on liver cytochrome P450 (in vivo): not liver cytochrome P450 dependent | dose renally excreted unchanged (in vivo): 66% | major metabolic pathway (enzymatic hydrolysis of the acetamide group), share of dose (in vivo): 24 % of dose | time to steady state (multiple twice-daily dosing): 2 days | time of peak plasma concentrations (oral administration, fasted subjects): about an hour | decrease of Cmax by food (with food): 20% | delay of Tmax by food (with food): 1.5 h
SMILES: CC[C@@H](C(N)=O)N1CCCC1=O (single isomer, unassigned) [Levetiracetam]
effect of food on extent of bioavailability / absorption (with food): not affected by food; also recorded: Food does not affect the extent of absorption
